The nature of data set [1]: physchem. The following applies: water.
Data set [2] deals with fungi. The experiment in a line: Antifungal activity. It is filed as cell-based. An excerpt: (§1) Antifungal activity of organotin compounds. Minimal concentra-
(§2) tion (mg/l) causing complete inhibition of visible growth (MIC;
(§3) after three days). -Test medium: glucose-agar; pH~6.9-7.0.

In data set [3] the test system is Penicillium italicum. The format is cell-based. The settings on record: after three days, glucose-agar, pH~6.9-7.0.
Source text: as §1, §2, §3

Data set [4] concerns Aspergillus niger. It is filed as cell-based. The following applies: after three days, glucose-agar, pH~6.9-7.0.
Source text: as §1, §2, §3

For data set [5], the system named is Botrytis allii. It is filed as cell-based. The settings on record: after three days, glucose-agar, pH~6.9-7.0.
Source text: as §1, §2, §3

Data set [6] concerns Cladosporium cucumerinum. It is filed as cell-based. The settings on record: after three days, glucose-agar, pH~6.9-7.0.
Source text: as §1, §2, §3

Data set [7] concerns B. subtilis. It is filed as cell-based. The following applies: B. subtilis (Gram-pos.); after three days; peptone-glucose agar; pH ~ 6.9-7.0. An excerpt:
(§4) Antibacterial activity of organotin compounds. Minimal concentration
(§5) causing complete inhibition of visible growth (MIC; after three days).
(§6) Test medium: peptone-glucose agar; pH ~ 6.9-7.0.

For data set [8], the system named is E. coli. The format is cell-based. The following applies: E. coli (Gram-neg.); after three days; peptone-glucose agar; pH ~ 6.9-7.0.
Source text: as §4, §5, §6

Data set [9] concerns P. fluorescens. The format is cell-based. The settings on record: P. fluorescens (Gram-neg.); after three days; peptone-glucose agar; pH ~ 6.9-7.0.
Source text: as §4, §5, §6

In data set [10] the test system is S. lactis. It is filed as cell-based. The settings on record: S. lactis (Gram-pos.); after three days; peptone-glucose agar; pH ~ 6.9-7.0.
Source text: as §4, §5, §6

The test system of data set [11] is fungi. The following applies: literature citation (1); cited from earlier work.
The subject of data set [12] is bacteria. The experiment in a line: Antibacterial activity. It is filed as cell-based.
Source text: as §4, §5, §6

Where only a bound is given, the exact number is not on record here.

What is called solubility is the concentration that dissolves in the medium under given conditions. A lower solubility goes with a poorly soluble substance. In data set [1], `CCC[CH2][Sn]([CH2]CCC)([CH2]CCC)[CH2]CCN(C)C` [Bu3 Sn(CH2)3 NMe2, (3-dimethylaminopropyl)tributyltin] returned a solubility of about 20 mg/mL.

Regarding `CCC[CH2][Sn]([CH2]CCC)([CH2]CCC)[CH2]CCCBr` [Bu3 Sn(CH2)4 Br, (4-bromobutyl)tributyltin], the “antifungal activity (in words)” value in data set [2] is given as “somewhat less effective, although they show a surprisingly effective antifungal activity”.

The compound `CCC[CH2][Sn]([CH3])([CH2]CCC)[CH2]CCNCCCN(C)C.Cl.Cl` [MeBu2 Sn(CH2)3 NH(CH2)3 NMe2 . 2] showed a solubility in water of 50%. In data set [3], the “Minimal concentration causing complete inhibition of visible growth (MIC)” value was at most 10 mg/L. In addition, in data set [4], the “Minimal concentration causing complete inhibition of visible growth (MIC)” value was 100 mg/L. Besides, the “Minimal concentration causing complete inhibition of visible growth (MIC)” value in [5] was at most 10 mg/L. In addition, the “Minimal concentration causing complete inhibition of visible growth (MIC)” value in data set [6] stood at 20 mg/L. Also, the “Minimal concentration causing complete inhibition of visible growth (MIC)” value in data set [7] was 3 mg/L. Moreover, in data set [8], the “Minimal concentration causing complete inhibition of visible growth (MIC)” value came to 3 mg/L. The “Minimal concentration causing complete inhibition of visible growth (MIC)” value in data set [9] was found to be 3 mg/L. Also, the “Minimal concentration causing complete inhibition of visible growth (MIC)” value in data set [10] came to 3 mg/L.

`CC[CH2][Sn]([CH2]CC)([CH2]CC)[CH2]CCNCCCN(C)C.Cl.Cl` [Pr3 Sn(CH2)3 NH(CH2)3 NMe2 . 2] displayed a solubility in water of 50%. Further, the “Minimal concentration causing complete inhibition of visible growth (MIC)” value in [3] came to 10 mg/L. In [4], the “Minimal concentration causing complete inhibition of visible growth (MIC)” value came to 20 mg/L. In data set [5], the “Minimal concentration causing complete inhibition of visible growth (MIC)” value was at most 10 mg/L. The “Minimal concentration causing complete inhibition of visible growth (MIC)” value in [6] is 20 mg/L. In data set [7], the “Minimal concentration causing complete inhibition of visible growth (MIC)” value was determined as 10 mg/L. Also, in data set [8], the “Minimal concentration causing complete inhibition of visible growth (MIC)” value is 10 mg/L. Also, in data set [9], the “Minimal concentration causing complete inhibition of visible growth (MIC)” value turned out to be 10 mg/L. Further, the “Minimal concentration causing complete inhibition of visible growth (MIC)” value in data set [10] is 10 mg/L.

Regarding `CCC[CH2][Sn]([CH3])([Br])[CH2]CC` (centres unmarked) [MePrBuSnBr], in data set [11], the “antifungal activity, MIC values” is “about 10 mg/l”.

As to `CCC[CH2][Sn]([CH3])([Br])[CH2]CCC` [MeBu2 SnBr], the “antifungal activity, MIC values” in data set [11] is on record as “about 10 mg/l”.

In the case of `CCC[CH2][Sn]([CH2]CCC)([CH2]CCC)[CH2]Cc1ccncc1` [tributyl-[3-(4-pyridyl)ethyl]tin], the “antifungal activity (in words)” value in data set [2] is “high antifungal activity”.

Take `CC[CH2][Sn]([CH2]CC)([CH2]CC)[CH2]CCNCCCN(C)C` [Pr3 Sn(CH2)3 NH(CH2)3 NMe2, N-[3-(tripropylstannyl)propyl-N', N'-dimethyltrimethylene]diamine]: the “Minimal concentration causing complete inhibition of visible growth (MIC)” value in data set [3] was at most 10 mg/L; in data set [4], 10 mg/L; in [5] it was at most 10 mg/L; in data set [6], at most 10 mg/L; in [7] it was 10 mg/L; in data set [8] it was 10 mg/L. The “Minimal concentration causing complete inhibition of visible growth (MIC)” value in data set [9] and in data set [10] was 10 mg/L throughout.

Take `CCC[CH2][Sn]([CH2]CCC)([CH2]CCC)[O][Sn]([CH2]CCC)([CH2]CCC)[CH2]CCC` [bis(tributyltin)oxide, reference compound]: the solubility in water was 0.003%.

Consider `CCC[CH2][Sn]([CH2]CCC)([CH2]CCC)[CH2]CCN(C)C.Cl` [Bu3 Sn(CH2)3 NMe2 . HCl], for which the “Minimal concentration causing complete inhibition of visible growth (MIC)” value in data set [3] is 5 mg/L; in data set [4], 5 mg/L; in data set [5], 5 mg/L; in data set [6] it was 5 mg/L; in [7], 10 mg/L; in [8], 300 mg/L. Also, the “Minimal concentration causing complete inhibition of visible growth (MIC)” value in data set [9] was found to be 300 mg/L; in [10] it was 10 mg/L.

With `CCC[CH2][Sn]([CH2]CCC)([CH2]CCC)[CH2]CCBr` [Bu3 Sn(CH2)3 Br, (3-bromopropyl)tributyltin], the “antifungal activity (in words)” value in [2] is “somewhat less effective, although they show a surprisingly effective antifungal activity”.

As to `CCC[CH2][Sn]([Br])([CH2]CCC)[CH2]CCC` [Bu3 SnBr], in [11], the “antifungal activity, MIC values” is listed as “about 10 mg/l”.

As to `CCC[CH2][Sn]([CH2]CCC)([CH2]CCC)[CH2]CC(=O)OC` [Bu3 Sn(CH2)2 COOMe, tributyl-(3-carbomethoxyethyl)tin], in data set [2], the “antifungal activity (in words)” value is “high antifungal and antibacterial activity”. The “Minimal concentration causing complete inhibition of visible growth (MIC)” value in data set [3] was 1 mg/L; in [4], 5 mg/L; in data set [5] it was 0.5 mg/L; in data set [6] it was 1 mg/L; in data set [7], 30 mg/L; in data set [8], 100 mg/L. Besides, the entries for the “Minimal concentration causing complete inhibition of visible growth (MIC)” value in data set [9] and in data set [10] were over 1000 mg/L and 30 mg/L, respectively. Besides, the “antibacterial activity (in words)” value in [12] was “high antifungal and antibacterial activity”.

Take `CCC[CH2][Sn]([CH3])([Br])[CH2]CC[N+](C)(C)C.[I-]` (centres unmarked) [MeBuBrSn(CH2)3 NMe3 I, reference compound]: in [2], the “antifungal activity, MIC” value was over 500 mg/L. The “Minimal concentration causing complete inhibition of visible growth (MIC)” value in [3], in data set [4], in data set [5] and in data set [6] was over 500 mg/L each time.

For `CC[CH2][Sn]([CH2]CC)([CH2]CC)[CH2]Cc1ccncc1` [tripropyl-[3-(4-pyridyl)ethyl]tin], in [2], the “antifungal activity (in words)” value was “high antifungal as well as antibacterial activity”. For the same compound, the “antibacterial activity (in words)” value in data set [12] was “high antifungal as well as antibacterial activity”.

Source of the values: patent publication US4221811A, “Antifungal and/or antibacterial organotin compounds, and use” (priority 1977, dated 1980).
